Measurements taken from ChEMBL document CHEMBL2429720, “Synthesis, antimicrobial, and cytotoxicity studies of novel sulfur-linked quinolinecoumarin bisheterocycles” (Med Chem Res, 2013).
≈ marks a conversion by molar mass, not a printed value.

What was measured:
NIH3T3 = experiment: Cytotoxicity against mouse NIH/3T3 cells after 48 hrs by MTT assay; type: cell-based; details: NIH3T3, 48 h
Candida albicans [1] = experiment: Antifungal activity against Candida albicans ATCC 90028 at 100 ug/disk after 48 hrs by agar disk diffusion method; type: functional; details: ATCC 90028, 48 h, read-out: DIZ
Candida albicans [2] = experiment: Antifungal activity against Candida albicans ATCC 90028 after 18 to 24 hrs by agar dilution method; type: functional
Staphylococcus aureus [3] = experiment: Antibacterial activity against Staphylococcus aureus ATCC 11632 at 100 ug/disk after 24 hrs by agar disk diffusion method; type: functional; details: ATCC 11632, 24 h, read-out: DIZ
Staphylococcus aureus [4] = experiment: Antibacterial activity against Staphylococcus aureus ATCC 11632 after 18 to 24 hrs by agar dilution method; type: functional
Escherichia coli [5] = experiment: Antibacterial activity against Escherichia coli ATCC 25922 at 100 ug/disk after 24 hrs by agar disk diffusion method; type: functional; details: ATCC 25922, 24 h, read-out: DIZ
Escherichia coli [6] = experiment: Antibacterial activity against Escherichia coli ATCC 25922 after 18 to 24 hrs by agar dilution method; type: functional
Staphylococcus aureus [7] = experiment: microbe, parasite or virus in culture; details: ATCC 11632, 24 h, read-out: DIZ
Description: Antibacterial activity against Staphylococcus aureus ATCC 11632 at 10 ug/disk after 24 hrs by agar disk diffusion method

Escherichia coli [8] = experiment: microbe, parasite or virus in culture; details: ATCC 25922, 24 h, read-out: DIZ
Description: Antibacterial activity against Escherichia coli ATCC 25922 at 10 ug/disk after 24 hrs by agar disk diffusion method

Candida albicans [9] = experiment: Antifungal activity against Candida albicans ATCC 90028 at 10 ug/disk after 48 hrs by agar disk diffusion method; type: functional; details: ATCC 90028, 48 h, read-out: DIZ

Row | Compound | MIC (Candida albicans [2]) [µg/mL] | MIC (Staphylococcus aureus [4]) [µg/mL] | MIC (Escherichia coli [6]) [µg/mL] | IC50 (NIH3T3) [µM] | zone of inhibition at 100 µg/disc (Candida albicans [1]) [mm] | zone of inhibition at 100 µg/disc (Staphylococcus aureus [3]) [mm] | zone of inhibition at 100 µg/disc (Escherichia coli [5]) [mm] | zone of inhibition at 10 µg/disc (Staphylococcus aureus [7]) [mm] | zone of inhibition at 10 µg/disc (Escherichia coli [8]) [mm] | zone of inhibition at 10 µg/disc (Candida albicans [9]) [mm]
1 | O=c1oc2ccccc2cc1Sc1c(-c2ccc(Cl)cc2)nc2ccccc2c1-c1ccccc1 | 25 (≈ 50.8 µM) | 25 (≈ 50.8 µM) | 25 (≈ 50.8 µM) | – | 15 | 12 | 12 | – | – | –
2 | COc1ccc(-c2nc3ccccc3c(-c3ccccc3)c2Sc2cc3ccccc3oc2=O)cc1 | 25 (≈ 51.3 µM) | 25 (≈ 51.3 µM) | 25 (≈ 51.3 µM) | – | 12 | 16 | 12 | – | – | –
3 | O=c1oc2ccccc2cc1Sc1c(-c2ccc(-c3ccccc3)cc2)nc2ccccc2c1-c1ccccc1 | 50 (≈ 93.7 µM) | 25 (≈ 46.8 µM) | 50 (≈ 93.7 µM) | – | 10 | 10 | < 10 | – | – | –
4 | O=c1oc2ccccc2cc1Sc1c(-c2ccc3ccccc3c2)nc2ccccc2c1-c1ccccc1 | 50 (≈ 98.5 µM) | 50 (≈ 98.5 µM) | 50 (≈ 98.5 µM) | – | < 10 | < 10 | < 10 | – | – | –
5 | COC(=O)CSc1c(-c2ccccc2)nc2ccccc2c1-c1ccccc1 | 25 (≈ 64.9 µM) | 25 (≈ 64.9 µM) | 25 (≈ 64.9 µM) | – | 10 | 15 | 15 | – | – | –
6 | COC(=O)CSc1c(-c2ccc(Cl)cc2)nc2ccccc2c1-c1ccccc1 | 25 (≈ 59.5 µM) | 25 (≈ 59.5 µM) | 12.5 (≈ 29.8 µM) | – | 15 | 13 | 12 | – | – | –
7 | COC(=O)CSc1c(-c2ccc(OC)cc2)nc2ccccc2c1-c1ccccc1 | 25 (≈ 60.2 µM) | 12.5 (≈ 30.1 µM) | 12.5 (≈ 30.1 µM) | – | 12 | 15 | 15 | – | – | –
8 | COC(=O)CSc1c(-c2ccc(-c3ccccc3)cc2)nc2ccccc2c1-c1ccccc1 | 50 (≈ 108 µM) | 25 (≈ 54.2 µM) | 25 (≈ 54.2 µM) | – | 10 | 12 | 10 | – | – | –
9 | COC(=O)CSc1c(-c2ccc3ccccc3c2)nc2ccccc2c1-c1ccccc1 | 25 (≈ 57.4 µM) | 50 (≈ 115 µM) | 50 (≈ 115 µM) | – | 10 | 10 | 10 | – | – | –
10 | O=C(O)c1cn(C2CC2)c2cc(N3CCNCC3)c(F)cc2c1=O [CIPROFLOXACIN] | – | – | – | – | – | – | – | 25 | 28 | –

The remaining compounds from weak to strong by MIC (Candida albicans [2]), led by results:

Row | MIC (Candida albicans [2]) [µg/mL] | MIC (Staphylococcus aureus [4]) [µg/mL] | MIC (Escherichia coli [6]) [µg/mL] | Compound | IC50 (NIH3T3) [µM] | zone of inhibition at 100 µg/disc (Candida albicans [1]) [mm] | zone of inhibition at 100 µg/disc (Staphylococcus aureus [3]) [mm] | zone of inhibition at 100 µg/disc (Escherichia coli [5]) [mm] | zone of inhibition at 10 µg/disc (Staphylococcus aureus [7]) [mm] | zone of inhibition at 10 µg/disc (Escherichia coli [8]) [mm] | zone of inhibition at 10 µg/disc (Candida albicans [9]) [mm]
11 | 25 (≈ 60.2 µM) | 25 (≈ 60.2 µM) | 12.5 (≈ 30.1 µM) | COC(=O)CSc1c(-c2cccc(OC)c2)nc2ccccc2c1-c1ccccc1 | – | 15 | 15 | 15 | – | – | –
12 | 25 (≈ 54.6 µM) | 25 (≈ 54.6 µM) | 25 (≈ 54.6 µM) | O=c1oc2ccccc2cc1Sc1c(-c2ccccc2)nc2ccccc2c1-c1ccccc1 | – | 10 | 12 | 13 | – | – | –
13 | 25 (≈ 53 µM) | 25 (≈ 53 µM) | 25 (≈ 53 µM) | Cc1ccc(-c2nc3ccccc3c(-c3ccccc3)c2Sc2cc3ccccc3oc2=O)cc1 | – | 12 | 10 | 13 | – | – | –
14 | 12.5 (≈ 26.9 µM) | 12.5 (≈ 26.9 µM) | 12.5 (≈ 26.9 µM) | COC(=O)CSc1c(-c2cccc(Br)c2)nc2ccccc2c1-c1ccccc1 | 456 | 13 | 18 | 15 | – | – | –
15 | 12.5 (≈ 23.3 µM) | 12.5 (≈ 23.3 µM) | 12.5 (≈ 23.3 µM) | O=c1oc2ccccc2cc1Sc1c(-c2ccc(Br)cc2)nc2ccccc2c1-c1ccccc1 | – | 20 | 18 | 18 | – | – | –
16 | 12.5 (≈ 24.9 µM) | 25 (≈ 49.7 µM) | 12.5 (≈ 24.9 µM) | O=c1oc2ccccc2cc1Sc1c(-c2ccc([N+](=O)[O-])cc2)nc2ccccc2c1-c1ccccc1 | – | 18 | 15 | 15 | – | – | –
17 | 12.5 (≈ 31.3 µM) | 12.5 (≈ 31.3 µM) | 25 (≈ 62.6 µM) | COC(=O)CSc1c(-c2ccc(C)cc2)nc2ccccc2c1-c1ccccc1 | – | 13 | 16 | 11 | – | – | –
18 | 12.5 (≈ 26.9 µM) | 12.5 (≈ 26.9 µM) | 6.25 (≈ 13.5 µM) | COC(=O)CSc1c(-c2ccc(Br)cc2)nc2ccccc2c1-c1ccccc1 | – | 18 | 18 | 20 | – | – | –
19 | 12.5 (≈ 29 µM) | 12.5 (≈ 29 µM) | 6.25 (≈ 14.5 µM) | COC(=O)CSc1c(-c2ccc([N+](=O)[O-])cc2)nc2ccccc2c1-c1ccccc1 | – | 20 | 16 | 18 | – | – | –
20 | 12.5 (≈ 29.8 µM) | 12.5 (≈ 29.8 µM) | 12.5 (≈ 29.8 µM) | COC(=O)CSc1c(-c2cccc(Cl)c2)nc2ccccc2c1-c1ccccc1 | – | 15 | 18 | 18 | – | – | –
21 | 6.25 (≈ 18.1 µM) | – | – | Clc1ccccc1C(c1ccccc1)(c1ccccc1)n1ccnc1 [CLOTRIMAZOLE] | – | – | – | – | – | – | 28
